Experimental data from paper PMC7865145, “Identification of existing pharmaceuticals and herbal medicines as inhibitors of SARS-CoV-2 infection” (Proceedings of the National Academy of Sciences of the …, 2021).
Counter-ions that a name gives are not always drawn.

system: SARS-CoV-2 (hCoV-19/Taiwan/4/2020); assay: microbe, parasite or virus in culture; format: cell-based; details: not given

Structure (SMILES)	inhibition against SARS-CoV-2 in the cell-based screen
CC(=O)N[C@@H](C)C(=O)N[C@H](C(=O)N[C@@H](Cc1ccccc1)[C@@H](O)[C@H](O)[C@H](Cc1ccccc1)NC(=O)[C@@H](NC(=O)[C@H](C)NC(C)=O)C(C)C)C(C)C [JJS-0309]	did not show any inhibition

same assay, conditions: Vero E6, concentrations used in the screen (10, 3.3 and 1 μM)

Structure (SMILES)	inhibition against SARS-CoV-2 in the cell-based screen
Cc1cccc(C)c1OCC(=O)N[C@@H](Cc1ccccc1)[C@@H](O)C[C@H](Cc1ccccc1)NC(=O)[C@H](C(C)C)N1CCCNC1=O [Lopinavir]	none of these showed inhibition
CC(C)c1nc(CN(C)C(=O)N[C@H](C(=O)N[C@@H](Cc2ccccc2)C[C@H](O)[C@H](Cc2ccccc2)NC(=O)OCc2cncs2)C(C)C)cs1 [Ritonavir]	none of these showed inhibition
CCC[C@H](NC(=O)[C@@H]1[C@H]2CCC[C@H]2CN1C(=O)[C@@H](NC(=O)[C@@H](NC(=O)c1cnccn1)C1CCCCC1)C(C)(C)C)C(=O)C(=O)NC1CC1 [Telaprevir]	none of these showed inhibition
Nc1nc(NC2CC2)c2ncn([C@H]3C=C[C@@H](CO)C3)c2n1 [abacavir sulfate]	no active compound was identified
Nc1nc2c(ncn2COCCO)c(=O)[nH]1 [acyclovir]	no active compound was identified
CC(C)(C)C(=O)OCOP(=O)(COCCn1cnc2c(N)ncnc21)OCOC(=O)C(C)(C)C [adefovir dipivoxyl]	no active compound was identified
CC(C)CN(C[C@@H](O)[C@H](Cc1ccccc1)NC(=O)O[C@H]1CCOC1)S(=O)(=O)c1ccc(N)cc1 [amprenavir]	none of these showed inhibition
COC(=O)N[C@H](C(=O)N[C@@H](Cc1ccccc1)[C@@H](O)CN(Cc1ccc(-c2ccccn2)cc1)NC(=O)[C@@H](NC(=O)OC)C(C)(C)C)C(C)(C)C [atazanavir]	none of these showed inhibition
Nc1ccn(C[C@@H](CO)OCP(=O)(O)O)c(=O)n1 [cidofovir]	no active compound was identified
COC(=O)N[C@H](C(=O)N1CCC[C@H]1c1nc(-c2ccc(-c3ccc(-c4c[nH]c([C@@H]5CCCN5C(=O)[C@@H](NC(=O)OC)C(C)C)n4)cc3)cc2)c[nH]1)C(C)C [daclatasvir]	none of these showed inhibition
CC(C)(C)OC(=O)N[C@H]1CCCCC/C=C\[C@@H]2C[C@@]2(C(=O)NS(=O)(=O)C2CC2)NC(=O)[C@@H]2C[C@@H](OC(=O)N3Cc4cccc(F)c4C3)CN2C1=O [danoprevir]	none of these showed inhibition
CC(C)CN(C[C@@H](O)[C@H](Cc1ccccc1)NC(=O)O[C@H]1CO[C@H]2OCC[C@H]21)S(=O)(=O)c1ccc(N)cc1 [darunavir]	none of these showed inhibition
CC(C)Nc1cccnc1N1CCN(C(=O)c2cc3cc(NS(C)(=O)=O)ccc3[nH]2)CC1 [delavirdine]	no active compound was identified
O=C1Nc2ccc(Cl)cc2[C@@](C#CC2CC2)(C(F)(F)F)O1 [efavirenz]	no active compound was identified
C=C1[C@H](CO)[C@@H](O)C[C@@H]1n1cnc2c(=O)[nH]c(N)nc21 [entecavir]	no active compound was identified
CC(=O)OCC(CCn1cnc2cnc(N)nc21)COC(C)=O [famciclovir]	no active compound was identified
CC(C)(C)NC(=O)[C@@H]1CN(Cc2cccnc2)CCN1C[C@@H](O)C[C@@H](Cc1ccccc1)C(=O)N[C@H]1c2ccccc2C[C@H]1O [indinavir sulfate]	none of these showed inhibition
Cc1ccnc2c1NC(=O)c1cccnc1N2C1CC1 [nevirapine]	no active compound was identified
Nc1nc2c(ncn2CCC(CO)CO)c(=O)[nH]1 [penciclovir]	no active compound was identified
NC(=O)c1ncn([C@@H]2O[C@H](CO)[C@@H](O)[C@H]2O)n1 [ribavirin]	no active compound was identified
CC(C)(C)NC(=O)[C@@H]1C[C@@H]2CCCC[C@@H]2CN1C[C@@H](O)[C@H](Cc1ccccc1)NC(=O)[C@H](CC(N)=O)NC(=O)c1ccc2ccccc2n1 [saquinavir mesylate]	none of these showed inhibition
Cc1cn([C@@H]2C[C@@H](O)[C@H](CO)O2)c(=O)[nH]c1=O [telbivudine]	no active compound was identified
CC(C)OC(=O)OCOP(=O)(CO[C@H](C)Cn1cnc2c(N)ncnc21)OCOC(=O)OC(C)C [tenofovir disoproxil fumarate]	no active compound was identified
Nc1ccn([C@H]2CC[C@@H](CO)O2)c(=O)n1 [zalcitabine]	no active compound was identified

same assay, conditions: Vero E6; tested conc. 100 μM (Fig. S4)

Structure (SMILES)	block of viral infection in the cell-based assay (α-glucosidase inhibitors)
CN1C[C@H](O)[C@@H](O)[C@H](O)[C@H]1CO [N-methyl-1-deoxynojirimycin]	none was able to efficiently block the viral infection
C[C@H]1O[C@H](O[C@H]2[C@H](O)[C@@H](O)[C@@H](O[C@H]3[C@H](O)[C@@H](O)C(O)O[C@@H]3CO)O[C@@H]2CO)[C@H](O)[C@@H](O)[C@@H]1N[C@H]1C=C(CO)[C@@H](O)[C@H](O)[C@H]1O (stereo partly drawn) [acarbose]	none was able to efficiently block the viral infection
CC[C@H](CC[C@@H](C)[C@H]1CC[C@H]2[C@@H]3CC=C4C[C@@H](O[C@@H]5O[C@H](CO)[C@@H](O)[C@H](O)[C@H]5O)CC[C@]4(C)[C@H]3CC[C@]12C)C(C)C [daucosterol]	none was able to efficiently block the viral infection
OCCN1C[C@H](O)[C@@H](O)[C@H](O)[C@H]1CO [miglitol]	none was able to efficiently block the viral infection
OCC(CO)N[C@H]1C[C@](O)(CO)[C@@H](O)[C@H](O)[C@H]1O [voglibose]	none was able to efficiently block the viral infection
